Test results published in PMC5190074, “BET inhibition as a new strategy for the treatment of gastric cancer” (Oncotarget, 2016).
Like-named read-outs stand apart in the source and are kept apart here.

How the values were obtained:
Assay in all cases: biochemical
BRD4(2) = biological target: T1, BRD4(2) (Homo sapiens, UniProt O60885); set-up: thermal shift assay (real-time PCR machine), melting temperature shift of recombinant bromodomains at 2 uM protein
T1 construct: bromodomain 2
Experimental: (§1) The recombinant bromodomains at 2 μM were mixed with 10 μM inhibitors. The assays and data evaluation for melting temperatures were performed using a Real-Time PCR Mx3005p machine (Stratagene) and the protocols previously described. Experiments profiling the final compound (PNZ5) were performed in quadruplicates. […] Since its discovery in our own labs, similar inhibitors have also been disclosed by researchers at Boehringer Ingelheim [reference: patent, WO 2014/154760 [31]]. The inhibitor contains two possible acetyl-lysine mimetic moieties. In order to obtain molecular insights on the interaction of the developed inhibitor, the crystal structure of the first bromodomain of BRD4 in complex with PNZ5 was solved at 1.85 Å (Figure 2C and Supplementary Table 4, 5FBX.pdb). The inhibitor, coordinating residues and water molecules were well defined by the electron density. The dimethylisoxazole moiety mimicked the acetyl lysine side chain and formed two canonical hydrogen-bond interactions with Asn140 and water mediated hydrogen-bond with Tyr 97 (Figure 2C). The common network of waters within the binding site was also conserved in the BRD4(1)-PNZ5 complex. The compound was further stabilized by lipophilic interactions with residues forming the binding site Leu92, Leu94, Ile146. The [compound left out] substituent was well accommodated next to the WPF shelf, as well as the N1-methyl substituent that formed hydrophobic interactions with Trp81. The carbonyl on the isoindolinone established a water-mediated hydrogen bond with Lys91.

BAZ2A = biological target: T2, BAZ2A (Homo sapiens, UniProt Q9UIF9); set-up: thermal shift assay (real-time PCR machine), melting temperature shift of recombinant bromodomains at 2 uM protein
T2 construct: bromodomain
T2 sequence (Q9UIF9 whole entry): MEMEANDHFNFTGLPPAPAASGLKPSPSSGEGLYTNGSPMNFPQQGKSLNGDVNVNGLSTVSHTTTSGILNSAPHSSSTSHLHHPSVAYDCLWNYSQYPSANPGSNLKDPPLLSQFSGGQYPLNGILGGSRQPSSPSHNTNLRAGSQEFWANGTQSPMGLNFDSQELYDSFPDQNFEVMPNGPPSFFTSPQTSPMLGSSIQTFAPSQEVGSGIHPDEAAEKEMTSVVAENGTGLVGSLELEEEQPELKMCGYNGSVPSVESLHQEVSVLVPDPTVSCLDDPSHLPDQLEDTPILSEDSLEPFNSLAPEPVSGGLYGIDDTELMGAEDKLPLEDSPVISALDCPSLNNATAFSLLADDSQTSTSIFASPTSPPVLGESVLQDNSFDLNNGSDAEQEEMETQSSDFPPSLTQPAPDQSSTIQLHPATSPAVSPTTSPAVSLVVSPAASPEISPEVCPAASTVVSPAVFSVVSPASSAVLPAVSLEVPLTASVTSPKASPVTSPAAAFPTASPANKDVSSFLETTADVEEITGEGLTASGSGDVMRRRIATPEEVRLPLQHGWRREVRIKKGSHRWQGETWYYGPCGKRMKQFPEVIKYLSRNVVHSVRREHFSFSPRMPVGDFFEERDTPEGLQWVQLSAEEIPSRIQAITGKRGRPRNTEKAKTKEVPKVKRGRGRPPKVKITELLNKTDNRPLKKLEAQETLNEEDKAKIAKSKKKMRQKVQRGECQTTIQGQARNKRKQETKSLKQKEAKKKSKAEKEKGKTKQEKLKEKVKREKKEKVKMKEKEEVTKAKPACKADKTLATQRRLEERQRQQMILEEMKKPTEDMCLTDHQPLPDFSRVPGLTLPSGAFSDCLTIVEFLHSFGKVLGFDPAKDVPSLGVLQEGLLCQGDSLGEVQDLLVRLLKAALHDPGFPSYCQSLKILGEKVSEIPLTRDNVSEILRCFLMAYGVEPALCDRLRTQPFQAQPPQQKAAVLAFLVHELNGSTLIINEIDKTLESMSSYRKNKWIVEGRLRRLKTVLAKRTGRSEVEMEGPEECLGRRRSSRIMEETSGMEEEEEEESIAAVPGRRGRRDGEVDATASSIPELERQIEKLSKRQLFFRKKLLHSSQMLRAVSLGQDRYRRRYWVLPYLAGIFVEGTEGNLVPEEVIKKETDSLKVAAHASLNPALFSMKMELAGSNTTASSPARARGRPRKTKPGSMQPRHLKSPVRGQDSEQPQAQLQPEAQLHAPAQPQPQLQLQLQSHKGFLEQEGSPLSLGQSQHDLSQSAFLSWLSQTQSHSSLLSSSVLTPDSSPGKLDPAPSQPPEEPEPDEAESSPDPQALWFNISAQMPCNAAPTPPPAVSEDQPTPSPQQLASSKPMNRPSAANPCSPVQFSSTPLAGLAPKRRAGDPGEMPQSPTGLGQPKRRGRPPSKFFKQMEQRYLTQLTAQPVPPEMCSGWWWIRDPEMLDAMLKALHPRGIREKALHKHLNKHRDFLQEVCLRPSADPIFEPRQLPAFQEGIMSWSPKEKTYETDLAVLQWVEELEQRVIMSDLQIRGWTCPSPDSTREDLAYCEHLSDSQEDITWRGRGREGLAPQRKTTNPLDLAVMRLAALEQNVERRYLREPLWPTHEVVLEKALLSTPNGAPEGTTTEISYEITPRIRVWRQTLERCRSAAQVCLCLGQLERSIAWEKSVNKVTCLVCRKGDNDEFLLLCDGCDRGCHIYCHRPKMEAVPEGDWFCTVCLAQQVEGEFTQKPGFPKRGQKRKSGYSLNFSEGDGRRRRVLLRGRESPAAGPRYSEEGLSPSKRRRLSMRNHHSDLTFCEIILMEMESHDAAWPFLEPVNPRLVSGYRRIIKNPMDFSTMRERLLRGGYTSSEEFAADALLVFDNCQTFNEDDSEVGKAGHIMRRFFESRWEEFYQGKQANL
Experimental: as §1

BRD3(2) = biological target: T3, BRD3(2) (Homo sapiens, UniProt Q15059); set-up: thermal shift assay (real-time PCR machine), melting temperature shift of recombinant bromodomains at 2 uM protein
T3 construct: bromodomain 2
T3 sequence (Q15059 whole entry): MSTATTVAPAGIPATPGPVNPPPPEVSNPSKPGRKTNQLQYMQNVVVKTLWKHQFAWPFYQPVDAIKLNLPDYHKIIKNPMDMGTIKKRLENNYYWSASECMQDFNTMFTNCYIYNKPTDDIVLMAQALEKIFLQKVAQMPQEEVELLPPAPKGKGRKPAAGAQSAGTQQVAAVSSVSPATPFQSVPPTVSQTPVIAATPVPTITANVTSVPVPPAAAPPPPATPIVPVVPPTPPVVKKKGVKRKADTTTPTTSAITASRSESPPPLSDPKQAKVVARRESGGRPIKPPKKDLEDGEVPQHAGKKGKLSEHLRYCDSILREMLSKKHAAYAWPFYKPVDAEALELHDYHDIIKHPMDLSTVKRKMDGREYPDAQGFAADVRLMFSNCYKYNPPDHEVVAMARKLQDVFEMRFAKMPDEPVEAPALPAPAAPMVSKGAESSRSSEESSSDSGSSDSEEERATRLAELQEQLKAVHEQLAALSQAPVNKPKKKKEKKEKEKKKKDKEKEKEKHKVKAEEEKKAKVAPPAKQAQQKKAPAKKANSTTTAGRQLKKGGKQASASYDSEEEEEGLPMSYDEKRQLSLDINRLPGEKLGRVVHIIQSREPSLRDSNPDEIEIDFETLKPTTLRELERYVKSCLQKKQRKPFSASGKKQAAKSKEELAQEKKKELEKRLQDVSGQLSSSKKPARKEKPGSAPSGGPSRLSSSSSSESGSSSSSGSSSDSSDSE
Experimental: as §1

TRIM28 = biological target: T4, TRIM28 (Homo sapiens, UniProt Q13263); set-up: thermal shift assay (real-time PCR machine), melting temperature shift of recombinant bromodomains at 2 uM protein
T4 construct: bromodomain
Experimental: as §1

BAZ1B = biological target: T5, BAZ1B (Homo sapiens, UniProt Q9UIG0); set-up: thermal shift assay (real-time PCR machine), melting temperature shift of recombinant bromodomains at 2 uM protein
T5 construct: bromodomain
Experimental: as §1

PHIP(2) = biological target: T6, PHIP(2) (Homo sapiens, UniProt Q8WWQ0); set-up: thermal shift assay (real-time PCR machine), melting temperature shift of recombinant bromodomains at 2 uM protein
T6 construct: bromodomain 2
Experimental: as §1

PB1(2) = biological target: T7, PB1(2) (Homo sapiens, UniProt Q86U86); set-up: thermal shift assay (real-time PCR machine), melting temperature shift of recombinant bromodomains at 2 uM protein
T7 construct: gene PBRM1; bromodomain 2
Experimental: as §1

GCN5L2 = biological target: T8, GCN5L2 (Homo sapiens, UniProt Q92830); set-up: thermal shift assay (real-time PCR machine), melting temperature shift of recombinant bromodomains at 2 uM protein
T8 construct: gene KAT2A; bromodomain
T8 sequence (Q92830 whole entry): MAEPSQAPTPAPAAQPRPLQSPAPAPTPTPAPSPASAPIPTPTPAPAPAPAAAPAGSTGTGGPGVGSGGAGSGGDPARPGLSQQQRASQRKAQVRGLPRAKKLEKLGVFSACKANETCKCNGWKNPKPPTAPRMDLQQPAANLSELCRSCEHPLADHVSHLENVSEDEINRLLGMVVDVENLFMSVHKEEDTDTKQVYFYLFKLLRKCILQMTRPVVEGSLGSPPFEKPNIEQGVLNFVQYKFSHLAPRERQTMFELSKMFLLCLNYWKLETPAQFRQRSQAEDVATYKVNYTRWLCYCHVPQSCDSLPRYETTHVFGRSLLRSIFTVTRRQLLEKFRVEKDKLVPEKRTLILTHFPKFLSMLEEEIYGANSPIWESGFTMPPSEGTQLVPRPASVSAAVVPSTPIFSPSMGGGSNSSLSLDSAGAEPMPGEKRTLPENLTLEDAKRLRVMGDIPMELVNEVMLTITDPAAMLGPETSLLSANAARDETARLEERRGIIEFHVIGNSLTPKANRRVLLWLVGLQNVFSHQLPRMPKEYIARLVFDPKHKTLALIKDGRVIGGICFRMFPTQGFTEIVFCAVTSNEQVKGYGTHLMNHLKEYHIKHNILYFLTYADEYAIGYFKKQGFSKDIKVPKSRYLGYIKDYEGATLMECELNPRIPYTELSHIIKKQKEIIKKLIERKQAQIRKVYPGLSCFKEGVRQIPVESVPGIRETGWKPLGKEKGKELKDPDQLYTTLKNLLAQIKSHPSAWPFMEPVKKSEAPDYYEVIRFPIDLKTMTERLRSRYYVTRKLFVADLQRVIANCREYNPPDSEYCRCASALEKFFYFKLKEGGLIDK
Experimental: as §1

PB1(6) = biological target: T9, PB1(6) (Homo sapiens, UniProt Q86U86); set-up: thermal shift assay (real-time PCR machine), melting temperature shift of recombinant bromodomains at 2 uM protein
T9 construct: gene PBRM1; bromodomain 6
Experimental: as §1

[1] = biological target: T10, BRD4(1), first bromodomain of BRD4 (Homo sapiens, UniProt O60885); set-up: thermal shift assay (real-time PCR machine), melting temperature shift of recombinant bromodomains at 2 uM protein
T10 construct: first bromodomain; BRD4_HUMAN O60884-1 fragment 44-168 (crystallography)
Experimental: as §1

PCAF = biological target: T11, PCAF (Homo sapiens, UniProt Q92831); set-up: thermal shift assay (real-time PCR machine), melting temperature shift of recombinant bromodomains at 2 uM protein
T11 construct: gene KAT2B; bromodomain
T11 sequence (Q92831 whole entry): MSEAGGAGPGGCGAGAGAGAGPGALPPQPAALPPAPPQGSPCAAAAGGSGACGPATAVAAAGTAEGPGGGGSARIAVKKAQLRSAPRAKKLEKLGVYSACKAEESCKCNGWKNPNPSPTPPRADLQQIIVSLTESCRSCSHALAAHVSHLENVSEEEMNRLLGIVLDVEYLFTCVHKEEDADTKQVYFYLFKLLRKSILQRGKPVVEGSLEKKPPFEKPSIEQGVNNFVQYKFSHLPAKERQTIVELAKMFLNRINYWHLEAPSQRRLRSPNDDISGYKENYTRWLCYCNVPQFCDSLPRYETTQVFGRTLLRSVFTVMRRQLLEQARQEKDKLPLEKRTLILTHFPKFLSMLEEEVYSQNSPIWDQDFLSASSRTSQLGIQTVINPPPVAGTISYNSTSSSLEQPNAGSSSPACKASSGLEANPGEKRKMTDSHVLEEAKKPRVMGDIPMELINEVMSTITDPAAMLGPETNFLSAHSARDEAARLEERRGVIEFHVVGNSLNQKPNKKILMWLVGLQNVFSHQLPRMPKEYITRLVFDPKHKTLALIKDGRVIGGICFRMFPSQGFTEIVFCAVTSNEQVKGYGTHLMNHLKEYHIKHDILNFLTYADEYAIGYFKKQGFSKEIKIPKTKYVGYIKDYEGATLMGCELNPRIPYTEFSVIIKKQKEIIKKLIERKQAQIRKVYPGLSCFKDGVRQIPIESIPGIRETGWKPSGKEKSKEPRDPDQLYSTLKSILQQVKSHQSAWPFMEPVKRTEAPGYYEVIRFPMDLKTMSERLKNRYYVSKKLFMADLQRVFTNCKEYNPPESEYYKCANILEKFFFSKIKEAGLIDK
Experimental: as §1

EP300 = biological target: T12, EP300 (Homo sapiens, UniProt Q09472); set-up: thermal shift assay (real-time PCR machine), melting temperature shift of recombinant bromodomains at 2 uM protein
T12 construct: bromodomain
Experimental: as §1

BRD1 = biological target: T13, BRD1 (Homo sapiens, UniProt O95696); set-up: thermal shift assay (real-time PCR machine), melting temperature shift of recombinant bromodomains at 2 uM protein
T13 construct: bromodomain
Experimental: as §1

TAF1L(1) = biological target: T14, TAF1L(1) (Homo sapiens, UniProt Q8IZX4); set-up: thermal shift assay (real-time PCR machine), melting temperature shift of recombinant bromodomains at 2 uM protein
T14 construct: bromodomain 1
Experimental: as §1

[2] = biological target: T10, BRD4(1), first bromodomain of BRD4; set-up: thermal shift assay, SAR of isoxazole compounds against BRD4(1); details: read-out: ΔTm Shift (oC)
Experimental: The recombinant bromodomains at 2 μM were mixed with 10 μM inhibitors. The assays and data evaluation for melting temperatures were performed using a Real-Time PCR Mx3005p machine (Stratagene) and the protocols previously described. Experiments profiling the final compound (PNZ5) were performed in quadruplicates. Isoxazoles have been explored previously as BET bromodomain inhibitors. We have developed PNZ5, a new isoxazole-based inhibitor originating from the lead compound S1 (Figure 1). PNZ5 was developed as the result of a structure-based lead optimisation program. Dihydroindene S1 was identified as a ligand against BRD4(1) (pIC50 5.9). Investigation of the co-crystal structure of S1 with BRD4(1) [PDB ID 4GPJ] identified a number of positions for potential optimisation: addition of a carbonyl group at C-3 was envisaged to benefit from hydrogen-bonds (H-bonds) to a network of conserved water molecules; replacement of C-2 with a nitrogen would minimise interactions in the narrow ZA channel of BRD4(1) and N-substitution could provide further binding interactions with the protein; and alternative substitution of the hydroxyl at C-1 would provide a handle for further optimisation. […] The three best compounds, S3, S5 and S7, were destined to be separated into their component enantiomers for further evaluation (Supplementary Table 2). […]

Cc1noc(C)c1-c1ccc2c(c1)[C@H](c1ccccc1)N(C)C2=O [PNZ5] showed a ΔTm at 10 µM (BRD4(2)) of 7.04 °C, a ΔTm at 10 µM (BAZ2A) of 0.32 °C and a ΔTm at 10 µM (BRD3(2)) of 9.54 °C. The ΔTm at 10 µM (TRIM28) was -0.11 °C, the ΔTm at 10 µM (BAZ1B) was 1.67 °C and the ΔTm at 10 µM (PHIP(2)) was 0.22 °C. It also gave a ΔTm at 10 µM (PB1(2)) of 0.27 °C, a ΔTm at 10 µM (GCN5L2) of 0.25 °C and a ΔTm at 10 µM (PB1(6)) of 0.26 °C. For the same compound, the ΔTm at 10 µM [1] was 10.1 °C, the ΔTm at 10 µM (PCAF) was 0.45 °C and the ΔTm at 10 µM (EP300) was 2.49 °C. For the same compound, the ΔTm at 10 µM (BRD1) was 1.03 °C, the ΔTm at 10 µM (TAF1L(1)) was 0.31 °C and the ΔTm at 10 µM [2] was 11.4 °C.
